According to ChEMBL document CHEMBL3507680, “University of Dundee, Gates Library screen for HepG2 cell viability”:

Assay: Human HepG2 cell viability assay in 384 well format
Assay type: toxicity, cell-based
Parameters: dose 125 nL, time 70.5 hour; concentration not given beside the values
Conditions: HepG2 cells, read-out: Inhibition

SMILES	cytotoxicity at 70.5 h
Cc1nc(CN2CCN(C(=O)C(C(C)C)n3cncn3)CC2)cs1 (stereo unspecified)	-1.55%
Cc1cc(CN2CCN(C(=O)C(C(C)C)n3cncn3)CC2)no1 (stereo unspecified)	-8.12%
Cc1ccc(-n2nnc(CC(=O)N3CCN(C4CC4)CC3)c2C)cc1	-8.64%
Cc1oc(-c2ccsc2)nc1CC(=O)NCC(C)(C)CN(C)C	-9.09%
COc1ccc(-c2nc(CN3CC(n4cccn4)C3)no2)cc1	-5.24%
Cc1cc(C)n(C2CN(Cc3noc(C4CC4)n3)C2)n1	20.6%
COCC(NC(=O)c1cc(C)n(C)n1)c1cccc(C(F)(F)F)c1 (stereo unspecified)	4.67%
Cc1ccc(-c2nc(CN3CC(n4nc(C)cc4C)C3)no2)cc1	-8.79%
CCn1nc2c(cc1=O)CN(Cc1nc3ccccc3o1)CC2	-9.68%
CCCn1nc2c(cc1=O)CN(Cc1nc(C)c3ccccc3n1)CC2	-7.04%
Cn1nc2c(cc1=O)CN(Cc1nc3ccccc3c(=O)[nH]1)CC2	-6.45%
Cc1ccc(OC2CCN(S(=O)(=O)N(C)C)CC2)nc1	-12.1%
CCc1noc(CN(Cc2cccs2)C2CC2)n1	0.387%
CCOc1cc(CN(C)CCC(=O)OC)ccc1OC(F)F	-2.34%
CCOc1cc(CN(C)CCC#N)ccc1OC(F)F	-5.38%
CCOc1cc(CN(C)CCCC#N)ccc1OC(F)F	-6.87%
O=C(C(CNCc1ccco1)c1ccccc1)N1CCOCC1 (stereo unspecified)	-4.97%
COc1cc(NCc2c(C)noc2C)c(OC)cc1Cl	10.4%
COC(=O)CNC(=O)C1CCN(S(C)(=O)=O)CC1	-9.71%
Cc1nn(CC(O)CN2CCc3ccccc3C2)c(=O)c2ccccc12 (stereo unspecified)	-17.4%
CCN1CCC(NC(=O)CN2CCCC(NS(C)(=O)=O)C2)CC1 (stereo unspecified)	-10.1%
Cc1nnc2n1CCN(c1nn3cc(C(C)(C)C)nc3s1)C2	-7.66%
CNC(=O)NC(=O)CCN1CCCC1c1nc(C2CCCCC2)co1 (stereo unspecified)	-7.7%

SMILES	cytotoxicity at 70.5 h
CCN(C(=O)COc1nc(C(C)(C)C)no1)C1CC1	-2.91%
Cc1cnn(CCNCC(O)c2ccc(C(F)(F)F)cc2)c1 (stereo unspecified)	-17.1%
Cc1cn2nc(N3CCn4c(nnc4C(C)C)C3)sc2n1	12%
CC(NC(=O)c1ccc(C#N)cn1)C1(N2CCOCC2)CCCC1 (stereo unspecified)	-7.03%
N#Cc1ccc(F)c(CNC(=O)NC(CO)Cc2ccccc2)c1 (stereo unspecified)	-3.61%
CN(Cc1nnc2n1CCC2)S(=O)(=O)c1ccc(Br)cc1Cl	-4.12%
CN(Cc1nnc2n1CCC2)S(=O)(=O)c1cc(Br)ccc1Br	-13.1%
CNC(=O)NC(=O)CCSc1ccccc1Cl	-1.01%
O=C(COCC1CC1)NCC(c1ccccc1)N1CCc2sccc2C1 (stereo unspecified)	-6.84%
CC(NC(=O)Nc1nccs1)c1ccc(S(C)(=O)=O)cc1 (stereo unspecified)	-18.5%
Cc1cccc(N2N=C(C(=O)NC(C)Cc3ccco3)CCC2=O)c1 (stereo unspecified)	-13.7%
CC(Cc1ccco1)NC(=O)C1=NN(c2ccccc2)C(=O)CC1 (stereo unspecified)	16.9%
CC(C)N(C)C(=O)c1ccc(Cl)c(NC(=O)CCN2C(=O)CCC2=O)c1	-9.99%
CC(C)CC(=O)Nc1cc(C(=O)N(C)C(C)C)ccc1Cl	-8.37%
NC(=O)Nc1cccc(C(=O)N(Cc2ccc(F)cc2)C2CC2)c1	-14.8%
CC(=O)N1CCC(NC(=O)Cc2csc(C(C)(C)C)n2)CC1	-6.85%
Cc1nnc(CN(C)S(=O)(=O)c2ccc(Br)cc2Cl)n1C	-8.93%
CCC(=O)NC1CCCN(C(=O)Nc2cc(-c3ccccc3)on2)C1 (stereo unspecified)	-10.8%
CC(C)OCCS(=O)(=O)c1nccn1-c1cccc(F)c1	-9.1%
Cc1sc(Br)cc1S(=O)(=O)NCc1ccccn1	-18.2%
COCCCNS(=O)(=O)c1cc(Br)sc1C	-6.02%
CCC1CN(CC(=O)NCCC#N)CCO1 (stereo unspecified)	2.5%
CN1CC(NC(=O)Cc2csc(C(C)(C)C)n2)CCC1=O (stereo unspecified)	20.1%
